Patent US7414041B2 (Trustees Of Tufts College, priority 1991, dated 2008)
In brackets after ≈: the same amount, converted by molar mass. Like-named read-outs stand apart in the source and are kept apart here.

Key:
S. aureus Tc^s (RN450) = assay: susceptibility testing MIC/MLC, drug alone; type: cell-based
[1] = system: E. faecalis Tc^s (ATCC9790r); assay: susceptibility testing MIC/MLC, drug alone; type: cell-based
[2] = system: E. faecalis Tc^r (M) (ATCC9790r/Tet M); type: cell-based
[3] = system: E. faecalis Tc^r (L) (ATCC9790r/Tet L); type: cell-based; settings: Tc^r (L)
[4] = system: E. coli Class β Tc^r (DI-209); type: cell-based
S. aureus Tc^r (RN4250) = type: cell-based; settings: Tc^r RN4250
efflux protein = target: T1, efflux protein (Escherichia coli, UniProt P02980); assay: everted membrane vesicle assay, blocking activity of 13-S-derivatives (Ki); type: biochemical
T1 sequence (P02980 1-401): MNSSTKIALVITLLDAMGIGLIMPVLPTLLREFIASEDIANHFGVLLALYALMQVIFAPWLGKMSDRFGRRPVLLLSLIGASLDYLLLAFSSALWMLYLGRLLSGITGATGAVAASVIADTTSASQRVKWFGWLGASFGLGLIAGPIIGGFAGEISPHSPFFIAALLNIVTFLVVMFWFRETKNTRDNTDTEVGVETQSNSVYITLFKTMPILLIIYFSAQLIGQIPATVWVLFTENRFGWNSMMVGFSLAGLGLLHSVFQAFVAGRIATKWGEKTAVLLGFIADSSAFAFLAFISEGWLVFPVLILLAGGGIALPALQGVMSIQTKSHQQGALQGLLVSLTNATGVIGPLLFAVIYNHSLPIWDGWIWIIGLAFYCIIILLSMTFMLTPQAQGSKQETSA

[5] = system: E. coli Tc^s (MI 300-225); assay: susceptibility testing MIC/MLC, drug alone; type: cell-based
[6] = system: E. coli Class A Tc^r (DI-299); type: cell-based
S. aureus 4250 (Tet K) = assay: MIC/MLC chart, analog with and without doxycycline; type: cell-based
E. coli D1-299 (Tet A) = type: cell-based
E. faecalis 158 (Tet L) = assay: MIC/MLC chart, analog with and without doxycycline; type: cell-based
[7] = target: T2, TET proteins responsible for tetracycline efflux (Class B tetracycline resistance determinant, strain D1-209) (Escherichia coli, UniProt P02980); assay: biochemical; design: species or system E. coli; settings: uptake at 2.5 minutes, about 4 μM 3H-tetracycline; read-out: IC50
T2 construct: Everted vesicles, to which the TET proteins responsible for tetracycline efflux are attached; endogenous in cells; host or cells: E. coli strain D1-209 (everted membrane vesicles)

S. aureus 450 = assay: MIC of tetracycline susceptible strains, C5 esters; type: cell-based; settings: S. aureus 450, alone
E. faecalis 211 (Tet M) = assay: MIC/MLC chart, analog with and without doxycycline; type: cell-based;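 further: broth checkerboard of two-fold drug dilutions, alone and mixed with doxycycline, bacteria near 5×10^5 cells/ml, 18 h incubation at 37 °C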
E. faecalis ATCC 9790 = assay: MIC of tetracycline susceptible strains, C5 esters; type: cell-based; settings: E. faecalis ATCC 9790, alone
E. coli ML308 = assay: MIC of tetracycline susceptible strains, C5 esters; type: cell-based; settings: E. coli ML308, alone

## CCSCC1c2cccc(O)c2C(=O)C2=C(O)C3(O)C(=O)C(C(N)=O)=C(O)C(N(C)C)C3CC21 (stereo not drawn) [Ethyl, 6-deoxy-13-(ethylmercapto) tetracycline]
S. aureus Tc^s (RN450)
  MIC: 0.5 ± 0.25 µg
S. aureus Tc^s (RN450); kills 99.9%
  MLC: 4 µg
[1]; 1st column
  MIC: 1 ± 0.6 µg
[1]; 2nd column
  MIC: 40 ± 0.25 µg
[2]; 1st column
  MIC: 25 ± 6 µg
[2]; 2nd column
  MIC: >200 µg
[3]; 1st column
  MIC: 4 ± 1 µg
[3]; 2nd column
  MIC: 100 ± 0.25 µg
[4]; 1st column
  MIC: 36 ± 16 µg
[4]; 2nd column
  MIC: 60 ± 10 µg
S. aureus Tc^r (RN4250)
  MIC: 5 ± 2 µg
S. aureus Tc^r (RN4250); kills 99.9%
  MLC: 30 ± 10 µg
Efflux protein
  Ki: 0.4 mg/L (≈ 0.819 µM)
[5]; Tc^s, 1st column
  MIC: 6 ± 0.26 µg
[5]; Tc^s, 2nd column
  MIC: 60 µg
[5]; susceptible E. coli
  MIC: 5 mg/L (≈ 10.2 µM)
[6]; 1st column
  MIC: 14 ± 4 µg
[6]; 2nd column
  MIC: 46 ± 6 µg

## 13-propylthio-5-proprionate-6-deoxy-tetracycline [Cmpd 8]
S. aureus 4250 (Tet K); analog .195 + doxy 1.56 μg/ml
  growth / no growth (MIC) / killing (MLC) symbol: +
S. aureus 4250 (Tet K); analog .195 + doxy 3.12 μg/ml
  growth / no growth (MIC) / killing (MLC) symbol: ◯
S. aureus 4250 (Tet K); analog alone .195 μg/ml
  growth / no growth (MIC) / killing (MLC) symbol: +
E. coli D1-299 (Tet A); analog 1.56 + doxy 1.55 μg/ml
  growth / no growth (MIC) / killing (MLC) symbol: +
E. coli D1-299 (Tet A); analog 1.56 + doxy 3.1 μg/ml
  growth / no growth (MIC) / killing (MLC) symbol: +
E. coli D1-299 (Tet A); analog 1.56 + doxy 6.2 μg/ml
  growth / no growth (MIC) / killing (MLC) symbol: +
E. coli D1-299 (Tet A); analog 1.56 + doxy 12.3 μg/ml
  growth / no growth (MIC) / killing (MLC) symbol: ◯
E. coli D1-299 (Tet A); analog 3.12 + doxy 1.53 μg/ml
  growth / no growth (MIC) / killing (MLC) symbol: +
E. coli D1-299 (Tet A); analog 3.12 + doxy 3.05 μg/ml
  growth / no growth (MIC) / killing (MLC) symbol: +
E. coli D1-299 (Tet A); analog 3.12 + doxy 6.1 μg/ml
  growth / no growth (MIC) / killing (MLC) symbol: +
E. coli D1-299 (Tet A); analog 6.25 + doxy 5.9 μg/ml
  growth / no growth (MIC) / killing (MLC) symbol: +
E. coli D1-299 (Tet A); analog 6.25 + doxy 3.0. μg/ml
  growth / no growth (MIC) / killing (MLC) symbol: +
E. coli D1-299 (Tet A); analog 6.25 + doxy […]
  growth / no growth (MIC) / killing (MLC) symbol: +
E. coli D1-299 (Tet A); analog 12.5 + doxy 2.8 μg/ml
  growth / no growth (MIC) / killing (MLC) symbol: +
E. coli D1-299 (Tet A); analog 12.5 + doxy 5.5 μg/ml
  growth / no growth (MIC) / killing (MLC) symbol: +
E. coli D1-299 (Tet A); analog 12.5 + doxy […]
  growth / no growth (MIC) / killing (MLC) symbol: +
E. coli D1-299 (Tet A); analog 25 + doxy 2.4 μg/ml
  growth / no growth (MIC) / killing (MLC) symbol: +
E. coli D1-299 (Tet A); analog 25 + doxy 4.7 μg/ml
  growth / no growth (MIC) / killing (MLC) symbol: +
E. coli D1-299 (Tet A); analog 25 + doxy […]
  growth / no growth (MIC) / killing (MLC) symbol: +
E. coli D1-299 (Tet A); analog 50 + doxy 1.56 μg/ml
  growth / no growth (MIC) / killing (MLC) symbol: +
E. coli D1-299 (Tet A); analog 50 + doxy 3.12 μg/ml
  growth / no growth (MIC) / killing (MLC) symbol: +
E. coli D1-299 (Tet A); analog 50 + doxy .78 μg/ml
  growth / no growth (MIC) / killing (MLC) symbol: +
E. coli D1-299 (Tet A); analog .195 + doxy 1.56 μg/ml
  growth / no growth (MIC) / killing (MLC) symbol: +
E. coli D1-299 (Tet A); analog .195 + doxy 3.12 μg/ml
  growth / no growth (MIC) / killing (MLC) symbol: +
E. coli D1-299 (Tet A); analog .195 + doxy 6.25 μg/ml
  growth / no growth (MIC) / killing (MLC) symbol: +
E. coli D1-299 (Tet A); analog .195 + doxy 12.5 μg/ml
  growth / no growth (MIC) / killing (MLC) symbol: +
E. coli D1-299 (Tet A); analog .39 + doxy 1.56 μg/ml
  growth / no growth (MIC) / killing (MLC) symbol: +
E. coli D1-299 (Tet A); analog .39 + doxy 3.12 μg/ml
  growth / no growth (MIC) / killing (MLC) symbol: +
E. coli D1-299 (Tet A); analog .39 + doxy 6.25 μg/ml
  growth / no growth (MIC) / killing (MLC) symbol: +
E. coli D1-299 (Tet A); analog .39 + doxy 12.5 μg/ml
  growth / no growth (MIC) / killing (MLC) symbol: +
E. coli D1-299 (Tet A); analog .78 + doxy 1.56 μg/ml
  growth / no growth (MIC) / killing (MLC) symbol: +
E. coli D1-299 (Tet A); analog .78 + doxy 3.12 μg/ml
  growth / no growth (MIC) / killing (MLC) symbol: +
E. coli D1-299 (Tet A); analog .78 + doxy 6.23 μg/ml
  growth / no growth (MIC) / killing (MLC) symbol: +
E. coli D1-299 (Tet A); analog .78 + doxy 12.4 μg/ml
  growth / no growth (MIC) / killing (MLC) symbol: +
E. coli D1-299 (Tet A); analog alone 1.56 μg/ml
  growth / no growth (MIC) / killing (MLC) symbol: +
E. coli D1-299 (Tet A); analog alone 3.12 μg/ml
  growth / no growth (MIC) / killing (MLC) symbol: +
E. coli D1-299 (Tet A); analog alone 6.25 μg/ml
  growth / no growth (MIC) / killing (MLC) symbol: +
E. coli D1-299 (Tet A); analog alone 12.5 μg/ml
  growth / no growth (MIC) / killing (MLC) symbol: +
E. coli D1-299 (Tet A); analog alone 25.0 μg/ml
  growth / no growth (MIC) / killing (MLC) symbol: +
E. coli D1-299 (Tet A); analog alone 50.00 μg/ml
  growth / no growth (MIC) / killing (MLC) symbol: +
E. coli D1-299 (Tet A); analog alone .195 μg/ml
  growth / no growth (MIC) / killing (MLC) symbol: +
E. coli D1-299 (Tet A); analog alone .39 μg/ml
  growth / no growth (MIC) / killing (MLC) symbol: +
E. coli D1-299 (Tet A); analog alone .78 μg/ml
  growth / no growth (MIC) / killing (MLC) symbol: +
E. faecalis 158 (Tet L); analog .195 + doxy 1.56 μg/ml
  growth / no growth (MIC) / killing (MLC) symbol: +
E. faecalis 158 (Tet L); analog .195 + doxy 3.12 μg/ml
  growth / no growth (MIC) / killing (MLC) symbol: +
E. faecalis 158 (Tet L); analog .39 + doxy 1.56 μg/ml
  growth / no growth (MIC) / killing (MLC) symbol: ◯
E. faecalis 158 (Tet L); analog .39 + doxy 3.12 μg/ml
  growth / no growth (MIC) / killing (MLC) symbol: ◯
E. faecalis 158 (Tet L); analog alone .195 μg/ml
  growth / no growth (MIC) / killing (MLC) symbol: +
E. faecalis 158 (Tet L); analog alone .39 μg/ml
  growth / no growth (MIC) / killing (MLC) symbol: +
E. faecalis 158 (Tet L); analog alone .78 μg/ml
  growth / no growth (MIC) / killing (MLC) symbol: +
[7]
  IC50: 1.4 µM
S. aureus 450
  MIC: .3 mg/L
E. faecalis 211 (Tet M); analog 1.56 + doxy 1.55 μg/ml
  growth / no growth (MIC) / killing (MLC) symbol: +
E. faecalis 211 (Tet M); analog 1.56 + doxy 3.1 μg/ml
  growth / no growth (MIC) / killing (MLC) symbol: +
E. faecalis 211 (Tet M); analog 1.56 + doxy 6.2 μg/ml
  growth / no growth (MIC) / killing (MLC) symbol: +
E. faecalis 211 (Tet M); analog 3.12 + doxy 1.53 μg/ml
  growth / no growth (MIC) / killing (MLC) symbol: ◯
E. faecalis 211 (Tet M); analog 3.12 + doxy 3.05 μg/ml
  growth / no growth (MIC) / killing (MLC) symbol: ◯
E. faecalis 211 (Tet M); analog .195 + doxy 1.56 μg/ml
  growth / no growth (MIC) / killing (MLC) symbol: +
E. faecalis 211 (Tet M); analog .195 + doxy 3.12 μg/ml
  growth / no growth (MIC) / killing (MLC) symbol: +
E. faecalis 211 (Tet M); analog .195 + doxy 6.25 μg/ml
  growth / no growth (MIC) / killing (MLC) symbol: +
E. faecalis 211 (Tet M); analog .195 + doxy 12.5 μg/ml
  growth / no growth (MIC) / killing (MLC) symbol: +
E. faecalis 211 (Tet M); analog .39 + doxy 1.56 μg/ml
  growth / no growth (MIC) / killing (MLC) symbol: +
E. faecalis 211 (Tet M); analog .39 + doxy 3.12 μg/ml
  growth / no growth (MIC) / killing (MLC) symbol: +
E. faecalis 211 (Tet M); analog .39 + doxy 6.25 μg/ml
  growth / no growth (MIC) / killing (MLC) symbol: +
E. faecalis 211 (Tet M); analog .39 + doxy 12.5 μg/ml
  growth / no growth (MIC) / killing (MLC) symbol: +
E. faecalis 211 (Tet M); analog .78 + doxy 1.56 μg/ml
  growth / no growth (MIC) / killing (MLC) symbol: +
E. faecalis 211 (Tet M); analog .78 + doxy 3.12 μg/ml
  growth / no growth (MIC) / killing (MLC) symbol: +
E. faecalis 211 (Tet M); analog .78 + doxy 6.23 μg/ml
  growth / no growth (MIC) / killing (MLC) symbol: +
E. faecalis 211 (Tet M); analog alone 1.56 μg/ml
  growth / no growth (MIC) / killing (MLC) symbol: +
E. faecalis 211 (Tet M); analog alone 3.12 μg/ml
  growth / no growth (MIC) / killing (MLC) symbol: ◯
E. faecalis 211 (Tet M); analog alone .195 μg/ml
  growth / no growth (MIC) / killing (MLC) symbol: +
E. faecalis 211 (Tet M); analog alone .39 μg/ml
  growth / no growth (MIC) / killing (MLC) symbol: +
E. faecalis 211 (Tet M); analog alone .78 μg/ml
  growth / no growth (MIC) / killing (MLC) symbol: +
E. faecalis ATCC 9790
  MIC: 2.5 mg/L
E. coli ML308
  MIC: 20 mg/L
